Results published in the supplement of paper PMC10307832.

How the values were obtained:
Experiment in all cases: relative viability (nuclei count vs DMSO), 5 days (fraction); higher = more cells survive
[1] = compound: CC(O)(CS(=O)(=O)c1ccc(F)cc1)C(=O)Nc1ccc(C#N)c(C(F)(F)F)c1 [Bicalutamide] + CC(=O)c1c(C)c2cnc(Nc3ccc(N4CCNCC4)cn3)nc2n(C2CCCC2)c1=O [Palbociclib] (partner 0.5 µM)
Outline: (§1)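 Lung cancer cell lines, seeded in 1536-well plates, were treated the following day by pin tool with a single drug or with five library-drug doses (not always all listed) in √10 steps on top of a fixed anchor-drug dose. Cells were fixed and nuclei stained in one step after 5 days, and nuclei were counted. Relative viability is the nuclei count for treated wells divided by that for vehicle wells, reported as medians of duplicate plates.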

[2] = compound: CC(O)(CS(=O)(=O)c1ccc(F)cc1)C(=O)Nc1ccc(C#N)c(C(F)(F)F)c1 [Bicalutamide] + Cc1cc(Nc2cc(N3CCN(C)CC3)nc(Sc3ccc(NC(=O)C4CC4)cc3)n2)n[nH]1 [Tozasertib] (partner 0.1 µM)
Outline: as §1

Bicalutamide + Alpelisib = compound: CC(O)(CS(=O)(=O)c1ccc(F)cc1)C(=O)Nc1ccc(C#N)c(C(F)(F)F)c1 [Bicalutamide] + Cc1nc(NC(=O)N2CCC[C@H]2C(N)=O)sc1-c1ccnc(C(C)(C)C(F)(F)F)c1 [Alpelisib] (partner 2 µM)
Outline: as §1

[3] = compound: CC(O)(CS(=O)(=O)c1ccc(F)cc1)C(=O)Nc1ccc(C#N)c(C(F)(F)F)c1 [Bicalutamide] + N=C(N)NC(=N)NCCc1ccccc1 [Phenformin] (partner 250 µM)
Outline: as §1

| Cell Line | relative viability ([1]; first compound 0.08 µM) | relative viability ([1]; first compound 0.253 µM) | relative viability ([1]; first compound 0.8 µM) | relative viability ([1]; first compound 2.53 µM) | relative viability ([2]; first compound 0.08 µM) | relative viability ([2]; first compound 0.253 µM) | relative viability ([2]; first compound 0.8 µM) | relative viability ([2]; first compound 2.53 µM) | relative viability (Bicalutamide + Alpelisib; first compound 0.08 µM) | relative viability (Bicalutamide + Alpelisib; first compound 0.253 µM) | relative viability (Bicalutamide + Alpelisib; first compound 0.8 µM) | relative viability (Bicalutamide + Alpelisib; first compound 2.53 µM) | relative viability ([3]; first compound 0.08 µM) | relative viability ([3]; first compound 0.253 µM) | relative viability ([3]; first compound 0.8 µM) | relative viability ([3]; first compound 2.53 µM) |
| --- | --- | --- | --- | --- | --- | --- | --- | --- | --- | --- | --- | --- | --- | --- | --- | --- |
| NCI-H23 | 0.529 | 0.503 | 0.515 | 0.471 | 0.371 | 0.322 | 0.375 | 0.374 | 0.692 | 0.693 | 0.885 | 0.557 | 0.851 | 0.694 | 0.883 | 0.765 |
| NCI-H322M | 0.515 | 0.482 | 0.464 | 0.524 | 0.522 | 0.478 | 0.51 | 0.504 | 0.948 | 0.772 | 0.882 | 0.74 | 0.821 | 0.789 | 0.904 | 0.859 |
| NCI-H358 | 0.147 | 0.141 | 0.14 | 0.125 | 0.136 | 0.108 | 0.108 | 0.105 | 0.808 | 0.904 | 0.936 | 0.992 | 0.336 | 0.344 | 0.401 | 0.35 |
| NCI-H441 | 0.33 | 0.142 | 0.24 | 0.202 | 0.496 | 0.689 | 0.631 | 0.585 | 0.968 |  | 0.856 | 0.876 | 0.849 | 0.745 | 1.09 | 0.683 |
| NCI-H460 | 0.171 | 0.185 | 0.193 | 0.102 | 0.521 | 0.39 | 0.434 | 0.52 | 0.52 | 0.429 | 0.685 | 0.506 | 0.559 | 0.524 | 0.834 | 0.52 |
| NCI-H520 | 0.188 | 0.185 | 0.286 | 0.226 | 0.433 | 0.414 | 0.539 | 0.458 | 1.08 | 0.945 | 1.1 | 0.808 | 0.707 | 0.421 | 0.61 | 0.366 |
| NCI-H647 | 0.415 | 0.381 | 0.503 | 0.385 | 0.3 | 0.264 | 0.293 | 0.191 | 1.32 | 1.33 | 1.47 | 0.858 | 0.646 | 0.596 | 0.758 | 0.385 |
| NCI-H650 | 0.372 | 0.345 | 0.397 | 0.267 | 0.792 | 0.747 | 0.885 | 0.653 | 1.34 | 1.04 | 1.35 | 0.814 | 0.52 | 0.433 | 0.466 | 0.395 |
| NCI-H661 | 0.418 | 0.409 | 0.424 | 0.388 | 0.367 | 0.355 | 0.362 | 0.359 | 0.594 | 0.591 | 0.833 | 0.829 | 0.289 | 0.284 | 0.289 | 0.251 |
| NCI-H727 | 0.647 | 0.645 | 0.693 | 0.635 | 0.615 | 0.619 | 0.591 | 0.603 | 0.63 | 0.546 | 0.471 | 0.483 | 0.618 |  | 0.734 | 0.821 |
| NCI-H838 | 0.225 | 0.195 | 0.256 | 0.179 | 0.274 | 0.279 | 0.289 | 0.23 | 0.984 | 0.909 | 0.984 | 0.945 | 0.588 | 0.573 | 0.748 | 0.337 |
| NCI-H1355 | 0.4 | 0.382 | 0.437 | 0.374 | 0.613 | 0.499 | 0.658 | 0.462 | 0.816 | 0.793 | 0.924 | 0.853 | 0.456 | 0.44 | 0.481 | 0.492 |
| NCI-H1395 | 0.645 | 0.624 | 0.639 | 0.568 | 0.829 | 0.736 | 0.827 | 0.696 | 0.94 | 1.04 | 1.34 | 0.928 | 0.467 | 0.417 | 0.478 | 0.446 |
| NCI-H1437 | 0.305 | 0.283 | 0.342 | 0.343 | 0.399 | 0.423 | 0.448 | 0.403 | 1.02 | 0.988 | 1.24 | 0.954 | 0.341 | 0.264 | 0.422 | 0.309 |
| NCI-H1651 | 0.526 | 0.515 | 0.582 | 0.518 | 0.761 | 0.658 | 0.66 | 0.632 | 0.956 | 0.947 | 1.17 | 0.944 | 0.36 | 0.377 | 0.411 | 0.345 |
| NCI-H1666 | 0.652 | 0.603 | 0.652 | 0.675 | 0.6 | 0.562 | 0.625 | 0.597 | 1.01 | 0.889 | 1.13 | 0.942 | 0.613 | 0.541 | 0.569 | 0.537 |
| NCI-H1734 | 0.332 | 0.283 | 0.379 | 0.328 | 0.249 | 0.244 | 0.268 | 0.279 | 0.676 | 0.59 | 0.884 | 0.683 | 0.41 | 0.338 | 0.458 | 0.416 |
| NCI-H1755 | 0.472 | 0.42 | 0.473 | 0.43 | 0.458 | 0.625 | 0.576 | 0.599 | 0.914 | 0.903 | 0.992 | 0.853 | 0.651 | 0.595 | 0.596 | 0.551 |
| NCI-H1793 | 0.265 |  | 0.423 | 0.382 | 0.36 | 0.257 | 0.313 | 0.309 | 0.763 | 0.636 | 0.827 | 0.687 | 0.317 | 0.318 | 0.545 | 0.392 |
| NCI-H1915 | 0.534 | 0.463 | 0.595 | 0.473 | 0.434 | 0.447 | 0.491 | 0.381 | 1.07 | 1.12 | 1.14 | 1.01 | 0.375 | 0.313 | 0.368 | 0.362 |
